Source: publication PMC4737552 (Neuropharmacology, 2015)
Like-named read-outs stand apart in the source and are kept apart here.

Assays:
[1] = molecular target: T1, human α1β2 GABAA receptor (Homo sapiens, UniProt P14867+P47870); type: cell-based
T1 sequence (P14867 28-456): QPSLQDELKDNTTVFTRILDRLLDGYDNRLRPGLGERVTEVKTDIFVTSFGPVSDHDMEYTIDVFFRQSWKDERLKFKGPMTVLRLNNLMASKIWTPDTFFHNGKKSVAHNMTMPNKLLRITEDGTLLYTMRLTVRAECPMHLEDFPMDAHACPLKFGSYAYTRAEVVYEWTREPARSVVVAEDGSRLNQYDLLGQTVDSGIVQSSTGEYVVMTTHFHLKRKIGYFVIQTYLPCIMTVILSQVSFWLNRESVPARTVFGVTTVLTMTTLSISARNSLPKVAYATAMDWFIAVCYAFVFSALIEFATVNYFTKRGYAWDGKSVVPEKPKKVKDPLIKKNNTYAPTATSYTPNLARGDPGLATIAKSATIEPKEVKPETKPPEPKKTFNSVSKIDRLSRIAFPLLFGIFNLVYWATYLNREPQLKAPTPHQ
T1 sequence (P47870 25-512 limits assumed): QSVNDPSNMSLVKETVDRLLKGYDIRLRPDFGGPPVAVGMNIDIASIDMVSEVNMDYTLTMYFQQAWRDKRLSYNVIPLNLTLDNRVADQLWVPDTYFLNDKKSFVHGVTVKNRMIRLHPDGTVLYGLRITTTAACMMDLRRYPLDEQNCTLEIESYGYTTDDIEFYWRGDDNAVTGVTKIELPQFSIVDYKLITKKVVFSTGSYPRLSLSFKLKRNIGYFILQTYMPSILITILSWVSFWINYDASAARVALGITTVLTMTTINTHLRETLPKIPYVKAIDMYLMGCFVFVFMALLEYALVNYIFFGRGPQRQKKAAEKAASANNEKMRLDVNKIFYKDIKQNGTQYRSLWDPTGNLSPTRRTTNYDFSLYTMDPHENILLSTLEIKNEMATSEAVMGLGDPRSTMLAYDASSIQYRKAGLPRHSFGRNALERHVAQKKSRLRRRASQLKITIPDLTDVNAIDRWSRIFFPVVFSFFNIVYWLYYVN

[2] = molecular target: human α1β2γ2 GABAA receptor (Homo sapiens, UniProt P14867+P18507+P47870, DEL377-384, form not given); type: cell-based; conditions: for Enhancement of GABA current by carisoprodol, % of control: 100 µM CSP
[3] = molecular target: human α2β2γ2 GABAA receptor (Homo sapiens, UniProt P18507+P47869+P47870, DEL377-384, form not given); experiment: Whole-cell patch clamp, HEK293 cells expressing α2β2γ2 GABAARs; type: cell-based
[4] = molecular target: human α3β2γ2 GABAA receptor (Homo sapiens, UniProt P18507+P34903+P47870, DEL377-384, form not given); experiment: Whole-cell patch clamp, HEK293 cells expressing α3β2γ2 GABAARs; type: cell-based
[5] = molecular target: human α4β2γ2 GABAA receptor (Homo sapiens, UniProt P18507+P47870+P48169, DEL377-384, form not given); experiment: Whole-cell patch clamp, HEK293 cells expressing α4β2γ2 GABAARs; type: cell-based
[6] = molecular target: human α5β2γ2 GABAA receptor (Homo sapiens, UniProt P18507+P31644+P47870, DEL377-384, form not given); experiment: Whole-cell patch clamp, HEK293 cells expressing α5β2γ2 GABAARs; type: cell-based
[7] = molecular target: human α6β2γ2 GABAA receptor (Homo sapiens, UniProt P18507+P47870+Q16445, DEL377-384, form not given); experiment: Whole-cell patch clamp, HEK293 cells expressing α6β2γ2 GABAARs; type: cell-based
[8] = molecular target: human α1β1γ2 GABAA receptor (Homo sapiens, UniProt P14867+P18505+P18507, DEL377-384, form not given); experiment: Whole-cell patch clamp, HEK293 cells expressing α1β1γ2 GABAARs; type: cell-based
[9] = molecular target: rat α1β2 GABAA receptor (Rattus norvegicus, UniProt P62813+P63138); experiment: Whole-cell patch clamp, HEK293 cells expressing rat α1β2 GABAARs; type: cell-based
[10] = molecular target: rat α1β3γ2 GABAA receptor (Rattus norvegicus, UniProt P18508+P62813+P63079); experiment: Whole-cell patch clamp, HEK293 cells expressing rat α1β3γ2 GABAARs; type: cell-based
[11] = molecular target: rat α4β3δ GABAA receptor (Rattus norvegicus, UniProt P18506+P28471+P63079); experiment: Whole-cell patch clamp, HEK293 cells expressing extrasynaptic rat α4β3δ GABAARs; type: cell-based; conditions: for Potentiation of saturating (maximal) GABA currents: sub-gating concentration of drug
[12] = system: αxβ2γ2 GABAA receptors, where x = α subunit 1–6; experiment: Whole-cell patch clamp, direct gating across αxβ2γ2 GABAA receptors; type: cell-based, human; conditions: range over α1–α6 β2γ2 receptors
[13] = molecular target: T2, rat α1β3 GABAA receptor (Rattus norvegicus, UniProt P62813+P63079)
[14] = molecular target: T3, rat α1β3δ GABAA receptor (Rattus norvegicus, UniProt P18506+P62813+P63079); conditions: for Potentiation of saturating (maximal) GABA currents: sub-gating concentration of drug
[15] = molecular target: T2, rat α1β3 GABAA receptor; experiment: cell-based
[16] = molecular target: T3, rat α1β3δ GABAA receptor; experiment: cell-based
[17] = single dose of 350 mg; ref Littrell et al., 1993; cited from earlier work
[18] = case reports; ref McIntyre et al., 2012; Robertson and Marinetti, 2003; cited from earlier work
[19] = maximum current by carisoprodol plus GABA (EC20) normalized to GABA (EC20) currents
[20] = read-out: Carisoprodol direct gating EC50, relative to maximum current elicited by carisoprodol
[21] = read-out: EC50 for allosteric modulation by carisoprodol, in the presence of GABA (EC20)
[22] = normalized to maximum GABA gated currents

T2 sequence (P62813 28-455): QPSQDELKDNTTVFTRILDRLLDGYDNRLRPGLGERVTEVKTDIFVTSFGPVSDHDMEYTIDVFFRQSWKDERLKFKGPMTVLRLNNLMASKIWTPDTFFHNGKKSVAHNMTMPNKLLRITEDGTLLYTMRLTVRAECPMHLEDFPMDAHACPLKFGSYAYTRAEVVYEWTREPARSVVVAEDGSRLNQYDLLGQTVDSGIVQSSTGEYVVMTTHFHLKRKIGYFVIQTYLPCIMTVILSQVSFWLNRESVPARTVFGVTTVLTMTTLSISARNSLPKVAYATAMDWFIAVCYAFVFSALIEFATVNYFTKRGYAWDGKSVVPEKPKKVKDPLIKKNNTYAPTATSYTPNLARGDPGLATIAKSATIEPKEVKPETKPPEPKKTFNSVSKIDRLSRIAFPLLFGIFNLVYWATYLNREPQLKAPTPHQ
T2 sequence (P63079 26-473): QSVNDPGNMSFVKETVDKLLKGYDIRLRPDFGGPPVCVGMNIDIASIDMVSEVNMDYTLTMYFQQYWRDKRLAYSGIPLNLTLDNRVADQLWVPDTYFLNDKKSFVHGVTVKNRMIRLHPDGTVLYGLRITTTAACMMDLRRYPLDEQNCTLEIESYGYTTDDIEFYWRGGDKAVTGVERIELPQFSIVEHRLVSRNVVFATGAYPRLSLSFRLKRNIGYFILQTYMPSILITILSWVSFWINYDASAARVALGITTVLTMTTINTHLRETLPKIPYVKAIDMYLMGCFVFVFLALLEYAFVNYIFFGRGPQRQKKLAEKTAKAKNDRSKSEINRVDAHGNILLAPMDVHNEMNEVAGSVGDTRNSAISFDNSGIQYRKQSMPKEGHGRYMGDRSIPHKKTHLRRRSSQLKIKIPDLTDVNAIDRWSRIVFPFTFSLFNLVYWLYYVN
rat α1β2 GABAA receptor, sequence (P62813 28-455): as the sequence (P62813 28-455) above
rat α1β2 GABAA receptor, sequence (P63138 25-474 limits assumed): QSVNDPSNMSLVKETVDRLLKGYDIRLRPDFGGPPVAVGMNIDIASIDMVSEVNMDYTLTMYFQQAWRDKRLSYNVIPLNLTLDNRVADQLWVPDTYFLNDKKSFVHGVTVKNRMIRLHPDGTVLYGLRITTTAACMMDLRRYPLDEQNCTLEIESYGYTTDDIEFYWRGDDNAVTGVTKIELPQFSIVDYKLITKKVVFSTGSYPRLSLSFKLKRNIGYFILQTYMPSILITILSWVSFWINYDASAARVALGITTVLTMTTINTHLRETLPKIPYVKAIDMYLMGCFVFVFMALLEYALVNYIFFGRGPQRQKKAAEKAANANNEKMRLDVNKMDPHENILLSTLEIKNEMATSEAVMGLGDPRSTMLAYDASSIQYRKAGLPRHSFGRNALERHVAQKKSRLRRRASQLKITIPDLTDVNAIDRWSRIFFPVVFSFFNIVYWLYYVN
T3 sequence (P62813 28-455): as the sequence (P62813 28-455) above
T3 sequence (P63079 26-473): as the sequence (P63079 26-473) above
T3 sequence (P18506 17-449 limits assumed): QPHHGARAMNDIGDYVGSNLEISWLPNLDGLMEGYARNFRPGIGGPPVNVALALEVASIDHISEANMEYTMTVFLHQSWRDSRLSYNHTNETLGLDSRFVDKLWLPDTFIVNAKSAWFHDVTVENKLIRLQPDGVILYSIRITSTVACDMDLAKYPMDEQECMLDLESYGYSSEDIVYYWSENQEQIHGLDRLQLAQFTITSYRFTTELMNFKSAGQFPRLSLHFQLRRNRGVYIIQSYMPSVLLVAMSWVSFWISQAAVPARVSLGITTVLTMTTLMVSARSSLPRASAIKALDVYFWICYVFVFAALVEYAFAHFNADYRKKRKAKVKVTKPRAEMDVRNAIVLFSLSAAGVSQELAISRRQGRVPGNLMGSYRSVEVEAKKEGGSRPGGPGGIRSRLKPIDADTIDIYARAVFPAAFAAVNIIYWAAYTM
rat α4β3δ GABAA receptor, sequence (P28471 36-552): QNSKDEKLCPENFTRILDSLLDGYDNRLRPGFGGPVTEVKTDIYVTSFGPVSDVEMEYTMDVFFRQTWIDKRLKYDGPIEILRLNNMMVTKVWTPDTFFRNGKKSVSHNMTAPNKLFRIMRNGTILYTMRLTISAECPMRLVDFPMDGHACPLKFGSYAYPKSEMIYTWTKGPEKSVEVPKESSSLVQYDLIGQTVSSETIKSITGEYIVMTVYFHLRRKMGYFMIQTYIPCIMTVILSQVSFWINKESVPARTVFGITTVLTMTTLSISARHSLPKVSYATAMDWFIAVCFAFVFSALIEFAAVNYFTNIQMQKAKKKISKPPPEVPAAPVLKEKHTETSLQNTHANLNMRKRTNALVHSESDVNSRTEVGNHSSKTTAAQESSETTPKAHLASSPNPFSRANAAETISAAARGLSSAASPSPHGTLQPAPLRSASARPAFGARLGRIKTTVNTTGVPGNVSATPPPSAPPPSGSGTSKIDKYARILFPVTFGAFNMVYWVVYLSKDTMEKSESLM
rat α4β3δ GABAA receptor, sequence (P63079 26-473): as the sequence (P63079 26-473) above
rat α4β3δ GABAA receptor, sequence (P18506 17-449 limits assumed): as the sequence (P18506 17-449 limits assumed) above

Compound: CCCC(C)(COC(N)=O)COC(=O)NC(C)C (stereo not shown) [carisoprodol, Carisoprodol]
- EC50 ([1]; Carisoprodol direct gating EC50, α1β2, relative to maximum current elicited by carisoprodol): 679 ± 24.3 µM
- EC50 ([1]; EC50 for allosteric modulation by carisoprodol, α1β2, in the presence of GABA (EC20)): 87.4 ± 16.4 µM
- Efficacy of allosteric modulation by carisoprodol ([1]; α1β2, maximum current by carisoprodol plus GABA (EC20) normalized to GABA (EC20) currents): 346.7 ± 67.6%
- Carisoprodol direct gating Efficacy ([1]; α1β2, normalized to maximum GABA gated currents): 45.9 ±3%
- Enhancement of GABA current by carisoprodol, % of control ([2]; +60 mV): 204.8 ± 5.3%
- Enhancement of GABA current by carisoprodol, % of control ([2]; −60 mV): 285.3 ± 17.7%
- Mean carisoprodol direct gating effect, % of maximal GABA-gated current ([2]; 100 µM carisoprodol): 2.8%
- Voltage-dependence of direct gating effect ([2]; 1 mM CSP, −60 mV vs +60 mV): not impacted by membrane voltage
- Efficacy of allosteric modulation by carisoprodol [2, 19]: 474.7 ± 53.5%
- EC50 [2, 20]: 686 ± 30.4 µM
- EC50 [2, 21]: 88.2 ± 19.9 µM
- Efficacy of allosteric modulation by carisoprodol [3, 19]: 198.5 ± 9.5 %
- Carisoprodol direct gating Efficacy [3, 22]: 30.1 ± 1.4%
- EC50 [3, 20]: 829 ± 50.2 µM
- EC50 [3, 21]: 64.9 ± 19.1 µM
- Efficacy of allosteric modulation by carisoprodol [4, 19]: 242.7 ± 35.1 %
- Carisoprodol direct gating Efficacy [4, 22]: 13.4 ± 1.4 %
- EC50 [4, 20]: 1870 ± 92.4 µM
- EC50 [4, 21]: 63.7 ± 16.5 µM
- Efficacy of allosteric modulation by carisoprodol [5, 19]: 240.0 ± 16.4 %
- Carisoprodol direct gating Efficacy [5, 22]: 37.3 ± 5.0%
- EC50 [5, 20]: 758 ± 61.3 µM
- EC50 [5, 21]: 72.3 ± 10.1 µM
- Efficacy of allosteric modulation by carisoprodol [6, 19]: 247.6 ± 23.0 %
- Carisoprodol direct gating Efficacy [6, 22]: 37.7 ± 3.5%
- EC50 [6, 20]: 835 ± 60.3 µM
- EC50 [6, 21]: 90.8 ± 14.7 µM
- Efficacy of allosteric modulation by carisoprodol [7, 19]: 232.6 ± 26.9 %
- Carisoprodol direct gating Efficacy [7, 22]: 36.8 ± 4.7%
- EC50 [7, 20]: 294 ± 28.1 µM
- EC50 [7, 21]: 79.8 ± 13.8 µM
- Efficacy of allosteric modulation by carisoprodol [8, 19]: 225.6 ± 14.6 %
- Carisoprodol direct gating Efficacy [8, 22]: 69.7 ± 5.4 %
- EC50 [8, 20]: 729 ± 58.1 µM
- EC50 [8, 21]: 33.1 ± 4 µM
- EC50 ([9]; CSP gating EC50, rat α1β2, relative to maximum current elicited by carisoprodol): 670 ± 22.2 µM
- EC50 ([9]; CSP modulation EC50, rat α1β2, in the presence of GABA (EC20)): 120 ± 10.5 µM
- CSP modulation Efficacy ([9]; rat α1β2, maximum current by carisoprodol plus GABA (EC20) normalized to GABA (EC20) currents): 442.2 ± 27.7
- CSP gating Efficacy ([9]; rat α1β2, normalized to maximum GABA gated currents): 44.6 ± 4.85
- EC50 ([10]; CSP modulation EC50, rat α1β3γ2, in the presence of GABA (EC20)): 131 ± 12.4 µM
- CSP gating Efficacy ([10]; rat α1β3γ2, normalized to maximum GABA gated currents): 44.8 ± 3.23
- Potentiation of saturating (maximal) GABA currents ([10]; α1β3γ2, sub-gating concentration of drug): not seen
- Potentiation of saturating (maximal) GABA currents [11]: significant potentiation of maximal GABA currents
- Maximal carisoprodol-gated current, efficacy as % of maximal GABA-gated current [12]: 13–43%
- CSP modulation Efficacy ([13]; rat α1β3, maximum current by carisoprodol plus GABA (EC20) normalized to GABA (EC20) currents): 234.5 ± 18.9
- CSP gating Efficacy ([13]; rat α1β3, normalized to maximum GABA gated currents): 50.8 ± 6.24
- Potentiation of saturating (maximal) GABA currents ([13]; α1β3, sub-gating concentration of drug): not seen
- CSP modulation Efficacy ([14]; rat α1β3δ, maximum current by carisoprodol plus GABA (EC20) normalized to GABA (EC20) currents): 241.5 ± 25.1
- CSP gating Efficacy ([14]; rat α1β3δ, normalized to maximum GABA gated currents): 128.7 ± 12.3
- Carisoprodol direct gating efficacy relative to THIP ([14]; α1β3δ): roughly 90%
- Potentiation of saturating (maximal) GABA currents ([14]; α1β3δ): significant potentiation of maximal GABA currents
- EC50 ([15]; CSP gating EC50, rat α1β3, relative to maximum current elicited by carisoprodol): 606 ± 25.3 µM
- EC50 ([15]; CSP modulation EC50, rat α1β3, in the presence of GABA (EC20)): 135 ± 12.8 µM
- EC50 ([16]; CSP gating EC50, rat α1β3δ, relative to maximum current elicited by carisoprodol): 801 ± 24.2 µM
- EC50 ([16]; CSP modulation EC50, rat α1β3δ, in the presence of GABA (EC20)): 109 ± 11.4 µM
- Onset of effects after administration [17]: ≤ 30 min
- Plasma concentrations [17]: 4000 to 7000 ng/mL
- Time in which plasma concentrations are reached [17]: 2 to 4 h
- Fatal blood or plasma concentration [18]: ≥ 140 µM

Compound: CCCC(C)C1(CC)C(=O)NC(=O)NC1=O (stereo not shown) [pentobarbital]
- Potentiation of saturating (maximal) GABA currents [11]: potentiation of saturating GABA currents
- Potentiation of saturating (maximal) GABA currents ([14]; α1β3δ): potentiation of saturating GABA currents

Compound: Oc1noc2c1CCNC2 [THIP, 4,5,6,7-tetrahydroisoxazolo(5,4-c)pyridin-3-ol]
- THIP-gated currents, % of the amplitude of currents obtained with saturating GABA [11]: 153.4 ± 10.7%
- THIP-gated currents, % of the amplitude of currents obtained with saturating GABA ([14]; α1β3δ): 135.6 ± 7.2%

Compound: NCCCC(=O)O [GABA, γ-aminobutyric acid]
- GABA Hill Coefficient ([1]; α1β2): 1.32 ± 0.11
- GABA Hill Coefficient [2]: 1.32 ± 0.03
- GABA current amplitude at +60 mV as % of that recorded at −60 mV (outward rectification) ([2]; lower concentrations of GABA): 110%
- GABA Hill Coefficient [3]: 1.09 ± 0.12
- GABA Hill Coefficient [4]: 1.04 ± 0.06
- GABA Hill Coefficient [7]: 1.02 ± 0.12
- GABA Hill Coefficient [8]: 1.17 ± 0.09
